#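 Five compound concentrations were applied to cells in 96-well plates for 48 hours; endpoints were derived by simple linear interpolation of the resulting dose-response curve. TGI: concentration producing complete growth inhibition.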
# Columns and labels:
# Assay in all cases: growth of human tumour cells (NCI), 48 h
# [1] = test system: 786-0 renal
# [2] = test system: A498 renal
# [3] = test system: A549 NSCLC
# [4] = test system: ACHN renal
# [5] = test system: BT-549 breast
# [6] = test system: CAKI-1 renal
# [7] = test system: CCRF-CEM leukemia
# [8] = test system: COLO 205 colon
# [9] = test system: DU-145 prostate
# [10] = test system: EKVX NSCLC
# [11] = test system: HCC-2998 colon
# [12] = test system: HCT-116 colon
# [13] = test system: HCT-15 colon
# [14] = test system: HL-60(TB) leukemia
# [15] = test system: HOP-62 NSCLC
# [16] = test system: HOP-92 NSCLC
# [17] = test system: HS 578T breast
# [18] = test system: HT29 colon
# [19] = test system: IGROV1 ovarian
# [20] = test system: K-562 leukemia
# [21] = test system: KM12 colon
# [22] = test system: LOX IMVI melanoma
# [23] = test system: M14 melanoma
# [24] = test system: MCF7 breast
# [25] = test system: MDA-MB-231 breast
# [26] = test system: MDA-MB-435
# [27] = test system: MDA-N
# [28] = test system: MOLT-4 leukemia
# [29] = test system: NCI-H226 lung
# [30] = test system: NCI-H23 lung
# [31] = test system: NCI-H460 lung
# [32] = test system: NCI-H522 lung
# [33] = test system: OVCAR-3 ovarian
# [34] = test system: OVCAR-4 ovarian
# [35] = test system: OVCAR-5 ovarian
# [36] = test system: OVCAR-8 ovarian
# [37] = test system: PC-3 prostate
# [38] = test system: RXF 393 renal
# [39] = test system: SF-268 CNS
# [40] = test system: SF-295 CNS
# [41] = test system: SF-539 CNS
# [42] = test system: SK-MEL-2 melanoma
# [43] = test system: SK-MEL-5 melanoma
# [44] = test system: SK-OV-3 ovarian
# [45] = test system: SN12C renal
# [46] = test system: SNB-19 CNS
# [47] = test system: SNB-75 CNS
# [48] = test system: SR leukemia
# [49] = test system: SW-620 colon
# [50] = test system: T-47D breast
# [51] = test system: TK-10 renal
# [52] = test system: U251 CNS
# [53] = test system: UACC-257 melanoma
# [54] = test system: UACC-62 melanoma
# [55] = test system: UO-31 renal
# [56] = test system: MALME-3M melanoma
# [57] = test system: NCI/ADR-RES ovarian
# [58] = test system: RPMI-8226 leukemia
# [59] = test system: SK-MEL-28 melanoma
structure (smiles),measurement,setting,value
CN(C)c1ccc(C(=NNC(=O)c2cc3ccccc3[nH]2)c2ccc(N(C)C)cc2)cc1,TGI,[1],19.8 µM
same,TGI,[2],26.3 µM
same,TGI,[3],> 100 µM
same,TGI,[4],24.9 µM
same,TGI,[5],> 44.8 µM
same,TGI,[6],45.7 µM
same,TGI,[7],> 25.2 µM
same,TGI,[8],> 20.7 µM
same,TGI,[9],> 100 µM
same,TGI,[10],> 100 µM
same,TGI,[11],1.48 µM
same,TGI,[12],> 34.2 µM
same,TGI,[13],> 100 µM
same,TGI,[14],0.678 µM
same,TGI,[15],33.7 µM
same,TGI,[16],31.8 µM
same,TGI,[17],3.74 µM
same,TGI,[18],9.93 µM
same,TGI,[19],25.9 µM
same,TGI,[20],> 100 µM
same,TGI,[21],> 100 µM
same,TGI,[22],> 100 µM
same,TGI,[23],29 µM
same,TGI,[24],> 51 µM
same,TGI,[25],12.9 µM
same,TGI,[26],0.371 µM
same,TGI,[27],1.49 µM
same,TGI,[28],> 100 µM
same,TGI,[29],> 100 µM
same,TGI,[30],> 32.9 µM
same,TGI,[31],> 100 µM
same,TGI,[32],2.53 µM
same,TGI,[33],1.81 µM
same,TGI,[34],> 100 µM
same,TGI,[35],> 45.5 µM
same,TGI,[36],> 100 µM
same,TGI,[37],> 66.8 µM
same,TGI,[38],15 µM
same,TGI,[39],5.31 µM
same,TGI,[40],5.52 µM
same,TGI,[41],8.04 µM
same,TGI,[42],3.97 µM
same,TGI,[43],> 100 µM
same,TGI,[44],> 87.7 µM
same,TGI,[45],> 93.9 µM
same,TGI,[46],> 44.5 µM
same,TGI,[47],16.9 µM
same,TGI,[48],> 100 µM
same,TGI,[49],> 100 µM
same,TGI,[50],> 100 µM
same,TGI,[51],30.1 µM
same,TGI,[52],14.5 µM
same,TGI,[53],> 100 µM
same,TGI,[54],> 54 µM
same,TGI,[55],> 59.3 µM
CCOC(=O)C1C/C(C)=C(/C)SCCCS1 (stereo not given),TGI,[1],> 100 µM
same,TGI,[2],> 100 µM
same,TGI,[3],> 100 µM
same,TGI,[4],> 100 µM
same,TGI,[8],> 100 µM
same,TGI,[9],> 100 µM
same,TGI,[10],> 100 µM
same,TGI,[11],> 100 µM
same,TGI,[12],> 100 µM
same,TGI,[13],> 100 µM
same,TGI,[14],54.6 µM
same,TGI,[15],> 100 µM
same,TGI,[16],> 100 µM
same,TGI,[17],> 100 µM
same,TGI,[18],> 100 µM
same,TGI,[19],> 100 µM
same,TGI,[20],> 100 µM
same,TGI,[21],> 100 µM
same,TGI,[22],> 100 µM
same,TGI,[23],> 100 µM
same,TGI,[56],> 100 µM
same,TGI,[24],> 100 µM
same,TGI,[25],> 100 µM
same,TGI,[26],> 100 µM
same,TGI,[27],> 100 µM
same,TGI,[28],> 100 µM
same,TGI,[29],> 100 µM
same,TGI,[30],> 100 µM
same,TGI,[31],> 100 µM
same,TGI,[32],41.5 µM
same,TGI,[57],> 100 µM
same,TGI,[33],> 100 µM
same,TGI,[34],> 100 µM
same,TGI,[35],> 100 µM
same,TGI,[36],> 100 µM
same,TGI,[37],> 100 µM
same,TGI,[58],> 100 µM
same,TGI,[38],> 100 µM
same,TGI,[39],> 100 µM
same,TGI,[40],> 100 µM
same,TGI,[41],> 100 µM
same,TGI,[42],> 100 µM
same,TGI,[59],> 100 µM
same,TGI,[43],> 100 µM
same,TGI,[44],> 100 µM
same,TGI,[45],> 100 µM
same,TGI,[46],> 100 µM
same,TGI,[48],> 100 µM
same,TGI,[49],> 100 µM
same,TGI,[50],> 100 µM
same,TGI,[51],> 100 µM
same,TGI,[52],> 100 µM
same,TGI,[53],> 100 µM
same,TGI,[54],> 100 µM
same,TGI,[55],> 100 µM
